Source: article PMC7151106 (Pharmaceutics, 2020)

Experiments:
[1] = test system: T1, OAT1; assay: Substrate specificity / uptake in HEK293-OAT1 cells; assay type: in vitro ADME; conditions: 5 min
T1 construct: host or cells: HEK293
Method: (§1) HEK293-mock cells and HEK293 cells overexpressing OAT1 and OAT3 transporters (HEK293-OAT1 and -OAT3, respectively) were seeded in poly-D-lysine-coated 24-well plates at a density of 4 × 10^5 cells/well and cultured for 24 h in DMEM supplemented with 10% FBS and 5 mM non-essential amino acids at 37 °C in 8% CO2 condition.
(§2) For each experiment, the growth medium was discarded after 24 h, and the attached cells were washed with pre-warmed HBSS and incubated with pre-warmed HBSS for 20 min at 37 °C. To confirm the functionality of OAT1 and OAT3, we measured the uptake of 0.1 µM [^3H]PAH and 0.1 µM [^3H]ES, representative substrates for OAT1 and OAT3, respectively, into in the HEK293-mock cells and HEK293-OAT1 and -OAT3 cells, respectively, for 5 min in the presence and absence of 20 µM probenecid, a typical inhibitor for both OAT1 and OAT3 [8, 9]. The cells were then washed three times with 500 μL of ice-cold HBSS immediately after placing the plates on ice. Subsequently, cells were lysed with 10% sodium dodecyl sulfate and mixed with Optiphase cocktail solution overnight. The radioactivity of the cell lysate was measured using a liquid scintillation counter (Microbeta 2; Perkin Elmer Inc., Boston, MA, USA).
(§3) For the concentration dependency in the uptake of DWP16001, the uptake of DWP16001 in a concentration range of 0.5–50 μM dissolved in HBSS was measured for 5 min at 37 °C in the mock cells and HEK293-OAT1 and -OAT3 cells, respectively. After 5 min, the cells were washed three times with 500 μL of ice-cold HBSS immediately after placing the plates on ice.
(§4) In the concentration-dependent uptake studies, the transporter-mediated uptake of DWP16001 was calculated by the subtraction of the transport rates of DWP16001 into the mock cells from those of the HEK293-OAT1 and -OAT3 cells. Kinetic parameters for the OAT1- and OAT3-mediated transport of DWP16001 were determined using the Michaelis-Menten equation [V = Vmax⋅S/(Km + S)] [10].

[2] = biological target: T2, SGLT2 (Homo sapiens, UniProt P31639); assay: Recovery of SGLT2 activity after washout following 24 h exposure in CHO-SGLT2 cells; assay type: cell-based; conditions: 0.2–200 nM
T2 construct: host or cells: CHO
T2 sequence (P31639 1-672): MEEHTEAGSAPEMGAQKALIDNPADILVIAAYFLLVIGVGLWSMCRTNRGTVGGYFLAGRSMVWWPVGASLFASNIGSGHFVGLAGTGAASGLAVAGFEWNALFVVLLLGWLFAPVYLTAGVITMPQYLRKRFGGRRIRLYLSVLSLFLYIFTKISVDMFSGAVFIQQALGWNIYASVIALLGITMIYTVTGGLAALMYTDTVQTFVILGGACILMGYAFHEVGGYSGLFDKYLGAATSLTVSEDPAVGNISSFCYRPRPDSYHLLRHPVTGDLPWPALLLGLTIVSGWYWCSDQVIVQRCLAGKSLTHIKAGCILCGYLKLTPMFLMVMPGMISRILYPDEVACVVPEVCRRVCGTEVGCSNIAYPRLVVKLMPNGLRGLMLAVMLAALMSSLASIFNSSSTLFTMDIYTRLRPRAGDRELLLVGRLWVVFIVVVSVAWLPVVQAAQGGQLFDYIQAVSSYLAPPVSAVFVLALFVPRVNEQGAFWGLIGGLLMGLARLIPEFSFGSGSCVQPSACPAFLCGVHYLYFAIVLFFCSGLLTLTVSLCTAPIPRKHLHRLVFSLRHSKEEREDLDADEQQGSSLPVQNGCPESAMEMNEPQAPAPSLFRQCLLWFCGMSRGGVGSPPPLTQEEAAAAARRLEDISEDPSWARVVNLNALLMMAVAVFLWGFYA
Method: After 24 h, the RPMI1640 medium was replaced with pre-warmed fresh RPMI1640 medium and incubated for 1, 2, 3, 5, and 6 h, and proceeded another pre-incubation with Na^+-free buffer for 1 h. Then, after replacing Na^+-free buffer with Na^+ gradient buffer containing 10 µM [^14C]AMG, the uptake of [^14C]AMG into the CHO-SGLT2 cells was measured for 2 h. After 2 h of incubation, the radioactivity of the cell lysate was measured following the same sample preparation method described above.

[3] = biological target: T2, SGLT2; assay: Time dependency of SGLT2 inhibition (preincubation) in CHO-SGLT2 cells; assay type: cell-based; conditions: pretreatment 0, 1, 2 h
Method: After 2 h of incubation, the radioactivity of the cell lysate was measured following the same sample preparation method described above.

[4] = biological target: T2, SGLT2; assay: Mode of inhibition on SGLT2 (Dixon plots) in CHO-SGLT2 cells; assay type: cell-based; conditions: 1, 2.5, 5, 50 μM [14C]AMG
Method: The radioactivity of the cell lysate was measured following the same sample preparation method described above.

[5] = in vivo; conditions: ICR, mouse, po, 1 mg/kg
Method: (§5) An aliquot (30 µL) of each plasma sample was stored at −80 °C until the analysis. […] An aliquot (50 µL) of each kidney homogenate sample was stored at −80 °C until the analysis.
(§6) For the analysis of SGLT2 inhibitors, aliquots of plasma (30 µL) and kidney homogenate (50 µL) were added to 100 μL of aqueous solution of D4-DWP16001 (IS, 20 ng/mL), and vigorously mixed with 500 μL methyl tert-butyl ether (MTBE) for 15 min. After centrifugation at 16,000 g for 5 min, samples were kept for 1 h at −80 °C to make an aqueous layer freeze. An organic upper layer was transferred to a clean tube and evaporated to dryness under a gentle stream of nitrogen. Then, the dried extract was reconstituted in 150 µL of mobile phase, and a 3 µL aliquot of the reconstituent was injected into a liquid chromatography–tandem mass spectrometry (LC–MS/MS) system.
(§7) Pharmacokinetic parameters, such as the area under plasma concentration-time curve from zero to infinity (AUC), were calculated from plasma concentration vs time curves using non-compartment analysis with WinNonlin (version 5.1; Pharsights, Cary, NC, USA). The AUC ratios (i.e., ratios of kidney AUC to plasma AUC) were calculated by dividing the AUC of the three SGLT2 inhibitors in the kidney by the plasma AUC values of the three SGLT2 inhibitors.

[6] = test system: T3, OAT3; assay: Substrate specificity / uptake in HEK293-OAT3 cells; assay type: in vitro ADME; conditions: 5 min
T3 construct: host or cells: HEK293
Method: as §1, §2, §3, §4

[7] = mouse, in vivo, po, 1 mg/kg
Method: as §5, §6, §7

[8] = set-up: method as in PMID 27430987; conditions: cited from earlier work
[9] = physchem
[10] = biological target: T4, SGLT1 (Homo sapiens, UniProt P13866); assay: Inhibition of [14C]AMG uptake in CHO-SGLT1 cells; assay type: cell-based; conditions: 10 μM [14C]AMG, 2 h
T4 construct: host or cells: CHO
T4 sequence (P13866 1-664): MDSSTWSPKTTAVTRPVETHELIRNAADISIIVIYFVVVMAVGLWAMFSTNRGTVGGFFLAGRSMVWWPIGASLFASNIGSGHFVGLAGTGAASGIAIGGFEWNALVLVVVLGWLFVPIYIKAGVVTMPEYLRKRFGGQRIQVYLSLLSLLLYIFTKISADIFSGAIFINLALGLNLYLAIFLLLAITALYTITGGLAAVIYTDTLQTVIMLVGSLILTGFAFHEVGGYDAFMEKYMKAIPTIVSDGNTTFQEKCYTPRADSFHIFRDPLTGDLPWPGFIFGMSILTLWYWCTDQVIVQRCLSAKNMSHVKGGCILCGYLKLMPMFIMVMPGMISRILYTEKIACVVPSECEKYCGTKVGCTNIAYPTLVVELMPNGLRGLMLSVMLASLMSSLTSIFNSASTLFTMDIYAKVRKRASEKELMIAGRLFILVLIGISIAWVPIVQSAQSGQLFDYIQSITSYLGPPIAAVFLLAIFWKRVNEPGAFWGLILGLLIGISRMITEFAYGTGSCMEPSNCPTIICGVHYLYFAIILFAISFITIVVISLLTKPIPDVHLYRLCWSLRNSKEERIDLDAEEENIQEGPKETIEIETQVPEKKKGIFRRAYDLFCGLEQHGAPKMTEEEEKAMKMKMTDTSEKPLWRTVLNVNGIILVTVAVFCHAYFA
Method: CHO cells overexpressing SGLT1 and SGLT2 cells (CHO-SGLT1 and -SGLT2) and CHO-mock cells were characterized as previously described. Cells were maintained in RPMI1640 medium supplemented with 10% fetal bovine serum and 200 µg/mL G418 at 37 °C in 5% CO2 conditions. CHO-SGLT1 and -SGLT2 cells were seeded at a density of 1 × 10^5 cells/well in 96-well plates. After 24 h, the growth medium was discarded from the cells, and the cells were washed with pre-warmed Na^+-free buffer (10 mM HEPES, 5 mM Tris, 140 mM choline chloride, 2 mM KCl, 1 mM CaCl2, 1 mM MgCl2, pH7.4) and incubated for 1 h in Na^+-free buffer. After replacing Na^+-free buffer with Na^+ gradient buffer (10 mM HEPES, 5 mM Tris, 140 mM NaCl, 2 mM KCl, 1 mM CaCl2, 1 mM MgCl2, pH7.4) containing 10 µM [^14C]AMG, the uptake of [^14C]AMG into the CHO-mock cells and CHO-SGLT1 and -SLGT2 cells was measured for 0.5, 1, 1.5, 2, and 3 h. After a predetermined incubation time, cells were washed three times with 200 µL of ice-cold Na^+-free buffer immediately after placing the plates on ice. Then, the cells were lysed with 10% SDS, and the cell lysates were mixed with Optiphase cocktail solution. Thereafter, the radioactivity of the cell lysates was measured using a liquid scintillation counter.
After 2 h, cells were washed three times with 200 µL of ice-cold Na^+-free buffer and the cells were lysed with 10% SDS (40 µL), followed by adding Optiphase cocktail solution (200 µL). The radioactivity of the cell lysates was measured using a liquid scintillation counter. The SGLT1 or SGLT2-mediated uptake of [^14C]AMG was calculated by the subtraction of the uptake rates of [^14C]AMG into the mock cells from those of the CHO-SGLT1 and -SLGT2 cells. In the inhibition studies, the percentages of the transport rate of AMG with or without SGLT2 inhibitors were calculated and the data were fitted to an inhibitory effect model. The IC50 (the concentration of the inhibitor to show half-maximal inhibition) values were calculated using Sigma Plot ver.10.0 (Systat Software, Inc.; San Jose, CA, USA).

With `CCOc1ccc(Cc2cc([C@@H]3O[C@H](CO)[C@@H](O)[C@H](O)[C@H]3O)ccc2Cl)cc1` [Dapagliflozin, dapagliflozin] the “Substrate for OAT1” value ([1]; 2 μM, HEK293-OAT1 vs mock, ± 20 μM probenecid) was “not substrates”, the “Time after drug removal to recovery of SGLT2 activity to the control level” value [2] was 4 h and the “Time dependency of SGLT2 inhibition” value [3] was “time-independent”. The “Mode of inhibition on SGLT2” value [4] was “reversible and competitive”, the AUC(0-inf) [5] was 550 ± 144000 ng·h/mL and the AUC(0-t) [5] was 480 ± 180 ng·h/mL. The Cmax [5] was 275 ± 144 ng/mL, the Kp [5] was 64.6 ± 31.8 and the “Substrate for OAT3” value ([6]; 2 μM, HEK293-OAT3 vs mock, ± 20 μM probenecid) was “not substrates”. The AUC72h [7] was 26.30 ± 3.34 μg∙h/g tissue, the “Duration of increased urinary glucose excretion post dose” value [8] was no less than 18 h and the logP [9] was 2.27.
In the case of `CO[C@H]1O[C@H](CO)[C@@H](O)[C@H](O)[C@H]1O` [AMG, methyl a-D-glucopyranoside], the “AMG uptake into CHO-SGLT1 cells relative to CHO-mock cells” value [10] is reported as 42 fold.
For `Nc1ccc(C(=O)NCC(=O)O)cc1` [PAH, Para-aminohipuric acid], the “Increase in probe substrate uptake in HEK293-OAT1 vs HEK293-mock cells” value ([1]; 0.1 μM [3H]PAH) was 14.7 fold.
For `C[C@]12CC[C@@H]3c4ccc(OS(=O)(=O)O)cc4CC[C@H]3[C@@H]1CCC2=O` [ES, Estrone-3-sulfate], the “Increase in probe substrate uptake in HEK293-OAT3 vs HEK293-mock cells” value ([6]; 0.1 μM [3H]ES) was 16.4 fold.
